Results on 26 molecules are retold here after US20250145635A1, “COMPOUND CONTAINING BIS(AZANYLYLIDENE) SULFONYL STRUCTURE AND USE THEREOF IN MEDICINE” (SCINNOHUB PHARMACEUTICAL CO., LTD., priority 2021, published 2025).

The assay addresses recombinant human PKR enzyme (Homo sapiens (Human), UniProt P30613). In words: Pyruvate kinase (PKR) activity experiment. The assay is classed as biochemical. The following applies: activation of recombinant human PKR enzyme. The protocol: • 1). A recombinant human PKR enzyme solution was formulated at a concentration of 60 ng/well (a 20 μL reaction system), and 5 μL of the solution was added into each well of a black transparent bottom 384-well plate. • 2). Compound solutions were formulated at different concentrations, with the final concentrations of 1000/300/100 nM (containing 1% DMSO). Each 5 μL of the compound solution was added into the plate in item 3.1 and mixed well. The plate was incubated at room temperature for 10 min. • 3). A reaction system was formulated according to the instructions of a kit (as shown in the table below), and 10 μL of the reaction system was added into each well of the 384-well plate, and mixed uniformly with the solution in item 3.2.
• 4). The 384-well plate was placed on a microplate reader to detect the fluorescence value at 540/590 nm, where the value was read every 2 minutes and the detection was conducted continuously for 1 hour. • 5). The Slope value within the detection time was calculated, and the 0.1% DMSO well was used as a control well to calculate a compound activation rate.
[formula] • 6). Fitting dose-effect curve
With the log value of the compound concentration as the X axis and the percentage activation rate as the Y axis, a dose-effect curve was fitted with the log(agonist) vs. response-variable slope of the analysis software GraphPad Prism 5, and the AC50 value of the activity of each compound against PKR was obtained.

Where only a bound is given, the exact number is not on record here.

Sequence of recombinant human PKR enzyme (P30613 whole entry): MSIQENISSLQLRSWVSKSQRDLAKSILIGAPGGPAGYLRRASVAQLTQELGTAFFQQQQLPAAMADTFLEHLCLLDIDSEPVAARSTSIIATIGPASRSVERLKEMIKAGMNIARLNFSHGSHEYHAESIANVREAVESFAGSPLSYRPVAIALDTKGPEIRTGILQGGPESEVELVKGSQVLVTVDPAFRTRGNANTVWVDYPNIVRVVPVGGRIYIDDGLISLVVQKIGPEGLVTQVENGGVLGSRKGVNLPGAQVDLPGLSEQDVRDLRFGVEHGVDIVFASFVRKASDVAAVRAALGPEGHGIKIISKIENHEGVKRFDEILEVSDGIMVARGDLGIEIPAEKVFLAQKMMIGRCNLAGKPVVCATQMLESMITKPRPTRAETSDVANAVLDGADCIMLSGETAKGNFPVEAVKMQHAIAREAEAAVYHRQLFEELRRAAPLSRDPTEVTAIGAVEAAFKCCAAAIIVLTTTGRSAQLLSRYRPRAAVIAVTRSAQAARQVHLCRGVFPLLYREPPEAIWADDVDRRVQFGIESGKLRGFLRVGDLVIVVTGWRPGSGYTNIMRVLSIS

As a reminder, the AC50 is the midpoint of the concentration-response curve, whichever way the signal moves. For `O=C([C@H](CO)c1ccc(F)c(Cl)c1)N1CC(=C2CN(S(=O)(=O)c3ccccn3)C2)C1` [Compound 77, (S)-2-(3-chloro-4-fluorophenyl)-3-hydroxy-1-(1′-(pyridin-2-ylsulfonyl)-1′,4′-dihydro-2H,2′H-[3,3′-diazetidinylidene]-1(4H)-yl)propan-1-one], the AC50 was under 100 nM.

Take `O=C([C@H](CO)c1ccccc1)N1CC(=C2CN(S(=O)(=O)c3ccc(OC(F)F)cn3)C2)C1` [Compound 80, (S)-1-(1′-((5-(difluoromethoxy)pyridin-2-yl)sulfonyl)-1′,4′-dihydro-2H,2′H-[3,3′-diazetidinylidene]-1(4H)-yl)-3-hydroxy-2-phenylpropan-1-one]: the AC50 was under 100 nM.

For `CCOc1ccc(S(=O)(=O)N2CC(=C3CN(C(=O)[C@H](CO)c4ccccc4)C3)C2)nc1` [Compound 72, (S)-1-(1′-((5-ethoxypyridin-2-yl)sulfonyl)-1′,4′-dihydro-2H,2′H-[3,3′-diazetidinylidene]-1(4H)-yl)-3-hydroxy-2-phenylpropan-1-one], the AC50 is under 100 nM.

As for `O=C([C@H](CO)c1ccccc1)N1CC(=C2CN(S(=O)(=O)c3ccc(-c4ncco4)c(F)c3)C2)C1` [Compound 27, (S)-1-(1′-((3-fluoro-4-(oxazol-2-yl)phenyl)sulfonyl)-1′,4′-dihydro-2H,2′H-[3,3′-diazetidinylidene]-1(4H)-yl)-3-hydroxy-2-phenylpropan-1-one], the AC50 is 300 to 1000 nM.

Consider `O=C(N1CC(=C2CN(S(=O)(=O)c3ccc(OC(F)F)cc3)C2)C1)C1(c2ccccc2)CCOC1` (centres unmarked) [Compound 37, (1′-((4-(difluoromethoxy)phenyl)sulfonyl)-1′,4′-dihydro-2H,2′H-[3,3′-diazetidinylidene]-1(4H)-yl)(3-phenyltetrahydrofuran-3-yl)methanone], for which the concentration at half-maximal activity (AC50) was under 100 nM.

For `O=C([C@@H](CO)c1ccc(F)c(Cl)c1)N1CC(=C2CN(S(=O)(=O)c3ccccn3)C2)C1` [Compound 76, (R)-2-(3-chloro-4-fluorophenyl)-3-hydroxy-1-(1′-(pyridin-2-ylsulfonyl)-1′,4′-dihydro-2H,2′H-[3,3′-diazetidinylidene]-1(4H)-yl)propan-1-one], the half-maximal activity concentration (AC50) is 300 to 1000 nM.

Take `O=C([C@H](CO)c1ccc(F)cc1F)N1CC(=C2CN(S(=O)(=O)c3ccccn3)C2)C1` [Compound 83, (S)-2-(2,4-difluorophenyl)-3-hydroxy-1-(1′-(pyridin-2-ylsulfonyl)-1′,4′-dihydro-2H,2′H-[3,3′-diazetidinylidene]-1(4H)-yl)propan-1-one]: the AC50 was under 100 nM.

Turning to `COc1ccc(S(=O)(=O)N2CC(=C3CN(C(=O)[C@H](CO)c4ccc(F)cc4F)C3)C2)nc1` [Compound 87, (S)-2-(2,4-difluorophenyl)-3-hydroxy-1-(1′-((5-methoxypyridin-2-yl)sulfonyl)-1′,4′-dihydro-2H,2′H-[3,3′-diazetidinylidene]-1(4H)-yl)propan-1-one], the AC50 is under 100 nM.

`O=C(C(CO)c1ccc(F)c(F)c1)N1CC(=C2CN(S(=O)(=O)c3ccccn3)C2)C1` (centres unmarked) [Compound 61, 2-(3,4-difluorophenyl)-3-hydroxy-1-(1′-(pyridin-2-ylsulfonyl)-1′,4′-dihydro-2H,2′H-[3,3′-diazetidinylidene]-1(4H)-yl)propan-1-one]: the concentration at half-maximal activity (AC50) is 300 to 1000 nM.

Turning to `O=C([C@H](CO)c1ccc(F)cc1)N1CC(=C2CN(S(=O)(=O)c3ccccn3)C2)C1` [Compound 54, (S)-2-(4-fluorophenyl)-3-hydroxy-1-(1′-(pyridin-2-ylsulfonyl)-1′,4′-dihydro-2H,2′H-[3,3′-diazetidinylidene]-1(4H)-yl)propan-1-one], the concentration at half-maximal activity (AC50) is under 100 nM.

In the case of `O=C(C(CO)c1cccnc1)N1CC(=C2CN(S(=O)(=O)c3ccc4ncsc4c3)C2)C1` (centres unmarked) [Compound 48, 1-(1′-(benzo[d]thiazol-6-ylsulfonyl)-1′,4′-dihydro-2H,2′H-[3,3′-diazetidinylidene]-1(4H)-yl)-3-hydroxy-2-(pyridin-3-yl)propan-1-one], the AC50 was in the range of 101 to 300 nM.

For `O=C([C@H](CO)c1ccccc1)N1CC(=C2CN(S(=O)(=O)c3ccc(Cl)cn3)C2)C1` [Compound 66], the concentration at half-maximal activity (AC50) lay in the range of 101 to 300 nM.

`O=C([C@@H](CO)c1ccc(F)cc1)N1CC(=C2CN(S(=O)(=O)c3ccc4c(c3)OCCO4)C2)C1` [Compound 31, (R)-1-(1′-((2,3-dihydrobenzo[b][1,4]dioxin-6-yl)sulfonyl)-1′,4′-dihydro-2H,2′H-[3,3′-diazetidinylidene]-1(4H)-yl)-2-(4-fluorophenyl)-3-hydroxypropan-1-one]: the AC50 is 300 to 1000 nM.

With `Cc1nc2c(C(O)C(=O)N3CC(=C4CN(S(=O)(=O)c5ccc(OC(F)F)cc5)C4)C3)cccc2s1` (centres unmarked) [Compound 24, 1-(1′-((4-(difluoromethoxy)phenyl)sulfonyl)-1′,4′-dihydro-2H,2′H-[3,3′-diazetidinylidene]-1(4H)-yl)-2-hydroxy-2-(2-methylbenzo[d]thiazol-4-yl)ethan-1-one], the AC50 fell in the range of 300 to 1000 nM.

`O=C(C(O)c1ccc2c(c1)NCCO2)N1CC(=C2CN(S(=O)(=O)c3ccc(OC(F)F)cc3)C2)C1` (centres unmarked) [Compound 13, 1-(1′-((4-(difluoromethoxy)phenyl)sulfonyl)-1′,4′-dihydro-2H,2′H-[3,3′-diazetidinylidene]-1(4H)-yl)-2-(3,4-dihydro-2H-benzo[b][1,4]oxazin-6-yl)-2-hydroxyethan-1-one]: the concentration at half-maximal activity (AC50) was under 100 nM.

As for `CC(C)Oc1ccc(S(=O)(=O)N2CC(=C3CN(C(=O)[C@H](CO)c4ccccc4)C3)C2)nc1` [Compound 81, (S)-3-hydroxy-1-(1′-((5-isopropoxypyridin-2-yl)sulfonyl)-1′,4′-dihydro-2H,2′H-[3,3′-diazetidinylidene]-1(4H)-yl)-2-phenylpropan-1-one], the AC50 is 101 to 300 nM.

On to `[2H]C([2H])([2H])Oc1ccc(S(=O)(=O)N2CC(=C3CN(C(=O)[C@H](CO)c4ccccc4)C3)C2)nc1` [Compound 91, (S)-3-hydroxy-1-(1′-((5-(methoxy-d3)pyridin-2-yl)sulfonyl)-1′,4′-dihydro-2H,2′H-[3,3′-diazetidinylidene]-1(4H)-yl)-2-phenylpropan-1-one], for which the AC50 is under 100 nM.

As to `O=C([C@H](CO)c1ccccc1)N1CC(=C2CN(S(=O)(=O)c3ccc(OC(F)(F)F)cc3)C2)C1` [Compound 9, (S)-3-hydroxy-2-phenyl-1-(1′-((4-(trifluoromethoxy)phenyl)sulfonyl)-1′,4′-dihydro-2H,2′H-[3,3′-diazetidinylidene]-1(4H)-yl)propan-1-one], the half-maximal activity concentration (AC50) was 101 to 300 nM.

As to `O=C([C@H](CO)c1ccccc1)N1CC(=C2CN(S(=O)(=O)c3ccc4c(c3)NCCO4)C2)C1` [Compound 12, (S)-1-(1′-((3,4-dihydro-2H-benzo[b][1,4]oxazin-6-yl)sulfonyl)-1′,4′-dihydro-2H,2′H-[3,3′-diazetidinylidene]-1(4H)-yl)-3-hydroxy-2-phenylpropan-1-one], the half-maximal activity concentration (AC50) was under 100 nM.

For `NC(C(=O)N1CC(=C2CN(S(=O)(=O)c3ccc(OC(F)F)cc3)C2)C1)c1ccc(F)cc1` (centres unmarked) [Compound 22, 2-amino-1-(1′-((4-(difluoromethoxy)phenyl)sulfonyl)-1′,4′-dihydro-2H,2′H-[3,3′-diazetidinylidene]-1(4H)-yl)-2-(4-fluorophenyl)ethan-1-one], the AC50 was in the range of 300 to 1000 nM.

In the case of `O=C(C(CO)c1cccc(F)c1)N1CC(=C2CN(S(=O)(=O)c3ccc4ncsc4c3)C2)C1` (centres unmarked) [Compound 46, 1-(1′-(benzo[d]thiazol-6-ylsulfonyl)-1′,4′-dihydro-2H,2′H-[3,3′-diazetidinylidene]-1(4H)-yl)-2-(3-fluorophenyl)-3-hydroxypropan-1-one], the AC50 is under 100 nM.

Take `CN1C(=O)COc2ccc(S(=O)(=O)N3CC(=C4CN(C(=O)[C@H](CO)c5ccccc5)C4)C3)cc21` [Compound 41, (S)-6-((1′-(3-hydroxy-2-phenylpropionyl)-1′,4′-dihydro-2H,2′H-[3,3′-diazetidinylidene]-1(4H)-yl)sulfonyl)-4-methyl-2H-benzo[b][1,4]oxazine-3(4H)-one]: the concentration at half-maximal activity (AC50) was 300 to 1000 nM.

Regarding `O=C([C@@H](CO)c1ccc(F)cc1F)N1CC(=C2CN(S(=O)(=O)c3ccccn3)C2)C1` [Compound 84, (R)-2-(2,4-difluorophenyl)-3-hydroxy-1-(1′-(pyridin-2-ylsulfonyl)-1′,4′-dihydro-2H,2′H-[3,3′-diazetidinylidene]-1(4H)-yl)propan-1-one], the AC50 was in the range of 300 to 1000 nM.

`O=C(C(CO)c1ccc(F)cc1)N1CC(=C2CN(S(=O)(=O)c3ccc(OC(F)F)cc3)C2)C1` (centres unmarked) [Compound 16, 1-(1′-((4-(difluoromethoxy)phenyl)sulfonyl)-1′,4′-dihydro-2H,2′H-[3,3′-diazetidinylidene]-1(4H)-yl)-2-(4-fluorophenyl)-3-hydroxypropan-1-one]: the AC50 fell in the range of 101 to 300 nM.

Take `CNCC(C(=O)N1CC(=C2CN(S(=O)(=O)c3ccc4ncsc4c3)C2)C1)c1ccc(F)c(Cl)c1` (centres unmarked) [Compound 38, 1-(1′-(benzo[d]thiazol-6-ylsulfonyl)-1′,4′-dihydro-2H,2′H-[3,3′-diazetidinylidene]-1(4H)-yl)-2-(3-chloro-4-fluorophenyl)-3-(methylamino)propan-1-one]: the half-maximal activity concentration (AC50) fell in the range of 300 to 1000 nM.

For the molecule `O=C1COc2ccc(S(=O)(=O)N3CC(=C4CN(C(=O)[C@H](CO)c5ccccc5)C4)C3)cc2N1` [Compound 40, (S)-6-((1′-(3-hydroxy-2-phenylpropionyl)-1′,4′-dihydro-2H,2′H-[3,3′-diazetidinylidene]-1(4H)-yl)sulfonyl)-2H-benzo[b][1,4]oxazine-3(4H)-one], the half-maximal activity concentration (AC50) lay within 101 to 300 nM.
